Assay results: ChEMBL document CHEMBL2396606, “Discovery of novel HCV inhibitors: synthesis and biological activity of 6-(indol-2-yl)pyridine-3-sulfonamides targeting hepatitis C virus NS4B” (Bioorg Med Chem Lett, 2013)

Assays:
Assay type in all cases: ADME, organism-based
[1] = Cmax in Sprague-Dawley rat at 10 mg/kg, po; design: dose 10 mg/kg, route oral; conditions: in vivo
[2] = Tmax in Sprague-Dawley rat at 10 mg/kg, po; design: dose 10 mg/kg, route oral; conditions: in vivo
[3] = AUC (0 to 6 hrs) in Sprague-Dawley rat at 10 mg/kg, po; design: time < 6 hr, dose 10 mg/kg, route oral; conditions: plasma
[4] = Oral bioavailability in Sprague-Dawley rat at 10 mg/kg; conditions: in vivo
[5] = AUC (0 to infinity) in Sprague-Dawley rat at 10 mg/kg, po; design: time infinity, dose 10 mg/kg, route oral; conditions: plasma
[6] = AUC (0 to infinity) in Sprague-Dawley rat at 5 mg/kg, iv; design: time infinity, dose 5 mg/kg, route intravenous; conditions: plasma
[7] = Volume of distribution at steady state in Sprague-Dawley rat at 10 mg/kg, po and 5 mg/kg, iv; conditions: in vivo, read-out: Vdss

Row | SMILES | Cmax [1] | Tmax [2] | AUC(0-t) at 6 h [3] | bioavailability [4] | AUC(0-inf) [5] | AUC(0-inf) [6] | Vd [7]
1 | CC(C)NS(=O)(=O)c1ccc(-c2c(C#N)c3ccc(OC(F)F)cc3n2C2CCC2)nc1 | 53 ng/mL | 2 h | 0.579 µM·h | – | – | – | –
2 | N#Cc1c(-c2ccc(S(=O)(=O)NC(CF)CF)cn2)n(C2CCC2)c2cc(OC(F)F)ccc12 | 348 ng/mL | 3 h | 3.42 µM·h | 62% | 16 µM·h | 13 µM·h | 4.7 L/kg
3 | N#Cc1c(-c2ccc(S(=O)(=O)NC(CF)CF)cn2)n(C2CCC2)c2cc(C3CC3)ccc12 | 759 ng/mL | 2 h | 6.2 µM·h | – | – | – | –
4 | CC(C)NS(=O)(=O)c1ccc(-c2c(C#N)c3ccc(C4CC4)cc3n2C2CCC2)nc1 | 87 ng/mL | 2 h | 0.964 µM·h | – | – | – | –
